# Measured values: patent publication US7033829B2, “Method to inhibit cell growth using oligonucleotides” (Trustees of Boston University, priority 2000, dated 2006)
# Oligonucleotides are written 5' to 3', each unit as a sugar letter and its base; * is a phosphorothioate linkage, no mark a phosphodiester; rarer units and linkages stand in square brackets, end groups in braces. Plain capitals give the bases only. d = 2'-deoxy (DNA); {P} = phosphate
# What was measured:
# [1] = tested on: human melanocytes; test: Melanogenesis in human melanocytes; assay type: cell-based; settings: after one week in culture
# [2] = tested on: human melanoma line MM-AN; test: FACS analysis of MM-AN melanoma cells; assay type: cell-based; settings: 40 μM
# Procedure: (§1) Proteins were analyzed by denaturing polyacrylamide gel electrophoresis (SDS-PAGE), using 10% polyacrylamide, and western blot analysis was done with an E2F1-specific monoclonal antibody (KH95 Santa Cruz Biotechnology, Santa Cruz, Calif.), and p73 analyzed using a polyclonal antibody (AB-4 from Oncogene Research Products, San Diego, Calif.). […] In order to determine the contribution of p73 to cell death, MM-AN melanoma cells were stably transfected with a dominant negative p73 (p73DN) (Irwin et al., Nature 402:645–648) construct or empty vector as a control (p73^DN-containing vector a gift from Dr. William Kaelin, Dana Farber Institute, Boston) and paired cultures were supplemented with 40 μM 11mer-1 or diluent alone, then harvested at 72 hours for FACS analysis. […] The above-mentioned differentiation markers are expressed in normal human melanocytes. It appears that the loss of expression of these antigens is a mechanism that a subset of human melanomas uses to escape immunosurveillance defenses. Several peptides from these antigens are targets of tumor infiltrating cytotoxic lymphocytes. Encouraging results have been obtained in vivo with different vaccination strategies using antigenic peptides from the above antigens.
# [3] = tested on: E2F1, p73, Mart-1, tyrosinase, TRP-1 and gp-100; test: Western blot of MM-AN melanoma cells; assay type: cell-based, human
# Procedure: as §1
# [4] = tested on: p53; test: p53 immunoperoxidase staining in fibroblasts; assay type: cell-based, human; settings: normal neonatal fibroblasts; 100 μM; within 24 hours
# Procedure: The effect of pTpT on the level and intracellular distribution of p53 in normal neonatal fibroblasts was examined by immunoperoxidase staining using a p53-specific monoclonal antibody (mAb 421, Oncogene, Cambridge, Mass.). Preconfluent cultures were treated with either 100 μM pTpT or diluent for 24 hours before cell staining. Cells were first fixed for one minute in Histochoice fixative (Amresco, Solon, Ohio) followed by a five-minute rinse in PBS. p53 was detected using the Vectastain Elite ABC kit (Vector Laboratories, Burlingame, Calif.) and the p53-specific monoclonal antibody mAb 421.
# [5] = tested on: SOD2; test: SOD2 western blot in fibroblasts; assay type: cell-based, human; settings: 100 μM
# Procedure: Fibroblasts (newborn human) were maintained in Dulbecco's Modified Eagle Medium (DMEM) supplemented with 10% calf serum (CS) and 100 μM pTpT or diluent as control. Total cellular proteins were harvested at different intervals after stimulation and processed for western blot analysis. The blot was reacted with anti SOD2 antibodies (The Binding Site, Inc. San Diego, Calif.). […] Coomassie blue-stained residual bands on the gel confirmed uniform loading of the different lanes.
# [6] = tested on: BP DNA adducts (CAT reporter plasmid) in human keratinocytes; test: Repair of BP-damaged CAT reporter plasmid in keratinocytes; assay type: cell-based; settings: 100 μM 48 hours; ~25 or ~50 adducts/plasmid
# Procedure: The pCAT vector (Promega) was treated with benzo[a]pyrene-7,8-diol-9,10-epoxide (BP) as described (Athas et al. Cancer Res 1991) to produce less damaged and more damaged plasmids, previously shown to be instructive in studies examining different repair capacities in human cells. Based on the incorporation of ^3H-BPDE into the DNA, the less damaged plasmid contained 25 adducts per 5 kb plasmid and the more damaged plasmid contained 50 adducts. This non-replicating vector contains the chloramphenicol acetyltransferase gene under control of SV40 promoter and enhancer sequences. […] CAT enzyme activity was determined using the liquid scintillation counting protocol and components of the assay system kit (Promega). ^14C-labeled chloramphenicol[50–60 mCi(1.85–2.22 GBq)/mmol] was purchased from New England Nuclear (Boston, Mass.). […]
# To measure the repair of BP DNA adducts, non-replicating BP-damaged reporter plasmid system containing the bacterial chloramphenicol acetyltransferase (CAT) gene was used as described in Example 8. With first passage human keratinocytes, the transfection efficiency, as measured by the cotransfected β-galactosidase expression vector, was 40–70%.
# [7] = tested on: GADD 45, ERCC 3 and SDI 1 mRNA; test: Northern blot of GADD 45, ERCC 3 and SDI 1 in SCC12F cells; assay type: cell-based, human; settings: 100 μM; as early as 24 hours, several days
# Procedure: Paired cultures of SCC12F cells were maintained in a Dulbecco's modified Eagle's Medium-based keratinocyte growth medium (DMEM; GIBCO/BRL, Gaithersburg, Md.) supplemented with 10% fetal calf serum (Hyclone Labs, Logan, Utah) and epidermal growth factor as described (Hollander, M. C. et al., J. Biol. Chem. 268:328–336 (1992)). Pre-confluent cultures were given fresh medium supplemented with either 100 μM T2, or an equal volume of diluent. Cells were collected daily after additions, and processed for total RNA isolation using the Tri-Reagent extraction method (Molecular Research Center, Cincinnati, Ohio) following the protocol of the manufacturer. Ten micrograms of RNA from each sample was gel electrophoresed, transferred to a nylon filter and probed as described previously (Nada, A. et al., Exp. Cell Res. 211:90–98 (1994)). The cDNA for GADD 45 was generated by PCR using primers based on the human GADD 45 gene sequence (Mitsudomi, T. et al., Oncogene 7:171–180 (1992)). The cDNA for ERCC 3 was purchased from the American Type Culture Collection (ATCC, Rockville, Md.). The SDI 1 cDNA was a gift of Dr. J. Smith and has been described previously (Walworth, N.C. and Bernards, R., Science 271:353–356 (1996)).
# [8] = tested on: BP DNA adducts (CAT reporter plasmid) in H1299 cells; test: Repair of BP-damaged CAT reporter plasmid in H1299 cells; assay type: cell-based, human
# Procedure: Preconfluent cultures of H1299 cells were transfected with an expression vector containing the wild type human p53 cDNA under the control of the human cytomegalovirus promoter/enhancer (Dr. Bert Vogelstein, Johns Hopkins Oncology Center). Control transfections were performed using the same vector lacking the p53 cDNA. Transfections were carried out as described previously.
# The pCAT vector (Promega) was treated with benzo[a]pyrene-7,8-diol-9,10-epoxide (BP) as described (Athas et al. Cancer Res 1991) to produce less damaged and more damaged plasmids, previously shown to be instructive in studies examining different repair capacities in human cells. Based on the incorporation of ^3H-BPDE into the DNA, the less damaged plasmid contained 25 adducts per 5 kb plasmid and the more damaged plasmid contained 50 adducts. This non-replicating vector contains the chloramphenicol acetyltransferase gene under control of SV40 promoter and enhancer sequences. Human keratinocytes and p53-transfected H1299 cells were pre-treated with either 100 μM pTpT or an equal volume of diluent (DMEM) alone for 48 hours, then transfected with either BP-modified pCAT-control vector (0.5 μg/ml) or unmodified vector (0.5 μg/ml) together with PSV-β-galactosidase control vector (0.5 μg/ml). Cells were collected in a reporter lysis buffer (Promega) 24 hours after transfection. CAT enzyme activity was determined using the liquid scintillation counting protocol and components of the assay system kit (Promega). ^14C-labeled chloramphenicol[50–60 mCi(1.85–2.22 GBq)/mmol] was purchased from New England Nuclear (Boston, Mass.). CAT activity was normalized with β-galactosidase activity.
# To confirm that pTpT enhances repair of BP-DNA adducts, at least in part, through p53 activation, p53-null H1299 cells were transfected with the p53 expression vector, and p53 protein expression was then confirmed by western blot analysis 48 hours after transfection.
substance,measurement,setting,value
"pGAGTATGAG (DNA, 5' {P}, backbone not given here) [SEQ ID NO: 1]",increase in melanogenesis,[1],51–62%
pGTTAGGGTTAG (DNA {P}-dGdTdTdAdGdGdGdTdTdAdG) [SEQ ID NO: 5],cell cycle,[2],first entered an S-phase arrest
same,apoptosis rate of cells expressing p73^DN,[2]; 72 hours,at half the rate of control cells
same,apoptosis (sub-G0/G1 DNA content),[2]; by 72 hours,a substantial portion of the cells were undergoing apoptosis
same,induction of E2F1 and p73,[3]; 40 μM,the same pattern of induction for E2F1 and p73 as observed for Jurkat cells
same,"differentiation markers Mart-1, tyrosinase, TRP-1 and gp-100",[3]; 48–72 hours after treatment,upregulated
thymidine dinucleotide [pTpT],intranuclear p53,[4],an increase in intranuclear p53
same,SOD2 protein induction,[5],SOD2 induction was sustained at least through 32 hours
same,"CAT expression relative to undamaged control vector, compared to diluent",[6],approximate doubling of CAT expression
same,"mRNAs for GADD 45, ERCC 3 and SDI 1",[7],up-regulated
same,plasmid repair efficiency versus diluent pre-treated cells,"[8]; p53+ H1299 cells, high level of BP damage",more than three times as efficiently
same,plasmid repaired more efficiently than in diluent pre-treated cells,"[8]; p53+ H1299 cells, low level of BP damage",80%±50%
same,repair capacity versus diluent,[8]; p53- H1299 cells,the repair capacity was the same
